Values of other authors, collected in US20010008638A1, “N[…] LEAST ONE […] AT LEAST ONE ANTI-ESTROGEN COMPOUND IN A TIME-RELEASE DOSAGE FORM” (priority 1999, published 2001).

Details: fold more potent than testosterone

C[C@]12CCC(=O)C[C@@H]1CC[C@@H]1[C@@H]2CC[C@]2(C)[C@@H](O)CC[C@@H]12 [DHT, dihydrotestosterone]
potency relative to testosterone: ~10 times
